Data reported in ChEMBL document CHEMBL1201862, “PubChem BioAssay data set” (2004).
Blank lines part the entries; values can stand above or below the molecule they belong to. Calls of active or inactive are those of the source.

Key:
[1] = biological target: Cytochrome P450 2C19 (Homo sapiens, UniProt P33261); test: Cytochrome panel assay with activity outcomes. Panel member name: p450-cyp2c19 Compounds with AC50 equal or less than 10 uM are considered active; assay type: functional
[2] = biological target: Cytochrome P450 2D6 (Homo sapiens, UniProt P10635);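 further: CYP2D6 member of a cytochrome P450 panel assay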
[3] = biological target: Lysine-specific demethylase 4A (Homo sapiens, UniProt O75164); test: JMJD2A histone demethylase inhibitors, dose response, selectivity assay for GASC-1 inhibitor project, biochemical, DELFIA europium, cherry-picked samples (AID 488840)
[4] = biological target: Lysine-specific demethylase 4C (Homo sapiens, UniProt Q9H3R0); test: GASC-1 (JMJD2C) histone demethylase inhibitors, dose response, biochemical, DELFIA europium, cherry-picked samples (AID 488835); assay type: functional
[5] = biological target: T1, Coagulation factor XII (Homo sapiens, UniProt P00748); test: FXIIa inhibitor potency, concentration-response, biochemical (AID 716); assay type: functional
T1 sequence (P00748 whole entry): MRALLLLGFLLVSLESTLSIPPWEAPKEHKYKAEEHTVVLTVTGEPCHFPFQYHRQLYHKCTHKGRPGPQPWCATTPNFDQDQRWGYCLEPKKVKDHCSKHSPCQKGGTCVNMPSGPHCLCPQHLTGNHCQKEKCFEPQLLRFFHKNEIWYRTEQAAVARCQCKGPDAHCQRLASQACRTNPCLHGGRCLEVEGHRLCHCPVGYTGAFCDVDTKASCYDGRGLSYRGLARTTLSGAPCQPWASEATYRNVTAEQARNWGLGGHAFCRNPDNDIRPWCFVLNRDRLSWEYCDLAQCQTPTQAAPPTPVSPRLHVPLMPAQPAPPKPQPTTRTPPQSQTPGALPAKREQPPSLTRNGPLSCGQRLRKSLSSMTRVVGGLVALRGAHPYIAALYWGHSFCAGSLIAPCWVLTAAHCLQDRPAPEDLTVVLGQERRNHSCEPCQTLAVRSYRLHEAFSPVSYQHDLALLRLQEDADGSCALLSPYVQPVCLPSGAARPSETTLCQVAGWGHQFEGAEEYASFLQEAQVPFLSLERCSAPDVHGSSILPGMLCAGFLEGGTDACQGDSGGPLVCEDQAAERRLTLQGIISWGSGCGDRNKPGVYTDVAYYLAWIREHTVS

[6] = HEp-2 cell cytotoxicity, dose response, cytotoxicity control for RSV inhibitor project, HTS (AID 2410); assay type: functional; details: human respiratory syncytial virus
[7] = biological target: G-protein coupled receptor 55 (Homo sapiens, UniProt Q9Y2T6); test: GPR55 antagonists blocking LPI-driven arrestin recruitment, primary screen, imaging, U2OS, beta-arrestin-GFP, LPI agonist (AID 2013); assay type: functional;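 further: antagonist potency measured as reduced agonist-driven arrestin aggregation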
[8] = biological target: Integrin alpha-L (Mus musculus, UniProt P24063); test: modulators of CD8 T cell-vesicle binding, dose response, powder samples, mouse 2C CD8+ cells (AID 504565); assay type: functional
[9] = biological target: CAAX prenyl protease 1 (Saccharomyces cerevisiae S288c, UniProt P47154); test: Ste24 protease inhibitors, dose response, biochemical, S. cerevisiae, plate reader, cherry-pick (AID 488815)
CAAX prenyl protease 1, sequence (P47154 whole entry): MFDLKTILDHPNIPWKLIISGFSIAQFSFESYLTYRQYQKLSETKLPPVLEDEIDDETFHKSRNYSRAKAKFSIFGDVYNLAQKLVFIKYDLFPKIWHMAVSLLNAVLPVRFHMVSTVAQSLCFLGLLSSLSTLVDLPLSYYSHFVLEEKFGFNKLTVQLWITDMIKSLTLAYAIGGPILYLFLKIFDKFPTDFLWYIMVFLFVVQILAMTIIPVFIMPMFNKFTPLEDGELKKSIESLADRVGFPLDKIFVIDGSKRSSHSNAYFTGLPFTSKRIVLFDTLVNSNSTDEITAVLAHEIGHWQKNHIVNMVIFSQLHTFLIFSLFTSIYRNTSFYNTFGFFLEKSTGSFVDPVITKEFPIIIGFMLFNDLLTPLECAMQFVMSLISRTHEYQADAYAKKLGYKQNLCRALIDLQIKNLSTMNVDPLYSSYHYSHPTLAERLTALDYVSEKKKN

G-protein coupled receptor 55, sequence (Q9Y2T6 whole entry): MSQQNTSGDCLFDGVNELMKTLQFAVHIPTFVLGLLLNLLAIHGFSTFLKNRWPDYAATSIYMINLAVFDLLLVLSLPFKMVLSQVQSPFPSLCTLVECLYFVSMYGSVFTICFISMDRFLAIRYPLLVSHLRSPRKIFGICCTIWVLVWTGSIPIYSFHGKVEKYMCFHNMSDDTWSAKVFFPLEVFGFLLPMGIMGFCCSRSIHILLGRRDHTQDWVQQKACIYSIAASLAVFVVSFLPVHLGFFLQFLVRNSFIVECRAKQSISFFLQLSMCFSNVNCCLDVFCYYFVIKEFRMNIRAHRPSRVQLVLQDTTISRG
Integrin alpha-L, sequence (P24063 whole entry): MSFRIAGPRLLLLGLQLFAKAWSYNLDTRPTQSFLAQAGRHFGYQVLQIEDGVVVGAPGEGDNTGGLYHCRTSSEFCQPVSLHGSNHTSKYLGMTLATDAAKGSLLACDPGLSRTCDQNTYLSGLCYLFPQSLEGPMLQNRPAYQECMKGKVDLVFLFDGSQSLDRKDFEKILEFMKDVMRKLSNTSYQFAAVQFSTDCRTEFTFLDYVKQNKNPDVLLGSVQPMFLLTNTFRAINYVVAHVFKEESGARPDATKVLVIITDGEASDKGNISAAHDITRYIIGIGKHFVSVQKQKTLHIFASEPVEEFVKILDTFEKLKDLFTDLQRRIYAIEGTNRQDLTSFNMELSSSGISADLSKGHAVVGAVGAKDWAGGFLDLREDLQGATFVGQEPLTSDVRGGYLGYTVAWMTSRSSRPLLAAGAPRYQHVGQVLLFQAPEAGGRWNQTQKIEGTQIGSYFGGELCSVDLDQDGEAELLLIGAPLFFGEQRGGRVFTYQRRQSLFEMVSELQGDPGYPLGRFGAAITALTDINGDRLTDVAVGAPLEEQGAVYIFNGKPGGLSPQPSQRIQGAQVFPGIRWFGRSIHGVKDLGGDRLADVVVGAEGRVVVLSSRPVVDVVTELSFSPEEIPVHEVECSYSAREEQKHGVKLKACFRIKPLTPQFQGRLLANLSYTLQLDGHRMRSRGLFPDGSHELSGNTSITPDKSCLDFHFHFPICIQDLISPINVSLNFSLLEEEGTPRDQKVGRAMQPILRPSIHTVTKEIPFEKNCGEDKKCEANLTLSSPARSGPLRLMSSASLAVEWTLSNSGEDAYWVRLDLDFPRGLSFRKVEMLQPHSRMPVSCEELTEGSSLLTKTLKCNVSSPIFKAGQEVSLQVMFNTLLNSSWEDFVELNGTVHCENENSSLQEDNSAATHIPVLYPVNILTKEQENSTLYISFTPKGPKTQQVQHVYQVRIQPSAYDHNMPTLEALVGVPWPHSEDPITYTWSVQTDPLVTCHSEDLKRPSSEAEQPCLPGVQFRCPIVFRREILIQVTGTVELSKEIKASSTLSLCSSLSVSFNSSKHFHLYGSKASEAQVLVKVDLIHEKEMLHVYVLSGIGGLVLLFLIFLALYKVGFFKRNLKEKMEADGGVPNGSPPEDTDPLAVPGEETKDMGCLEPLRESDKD
Cytochrome P450 2D6, sequence (P10635 whole entry): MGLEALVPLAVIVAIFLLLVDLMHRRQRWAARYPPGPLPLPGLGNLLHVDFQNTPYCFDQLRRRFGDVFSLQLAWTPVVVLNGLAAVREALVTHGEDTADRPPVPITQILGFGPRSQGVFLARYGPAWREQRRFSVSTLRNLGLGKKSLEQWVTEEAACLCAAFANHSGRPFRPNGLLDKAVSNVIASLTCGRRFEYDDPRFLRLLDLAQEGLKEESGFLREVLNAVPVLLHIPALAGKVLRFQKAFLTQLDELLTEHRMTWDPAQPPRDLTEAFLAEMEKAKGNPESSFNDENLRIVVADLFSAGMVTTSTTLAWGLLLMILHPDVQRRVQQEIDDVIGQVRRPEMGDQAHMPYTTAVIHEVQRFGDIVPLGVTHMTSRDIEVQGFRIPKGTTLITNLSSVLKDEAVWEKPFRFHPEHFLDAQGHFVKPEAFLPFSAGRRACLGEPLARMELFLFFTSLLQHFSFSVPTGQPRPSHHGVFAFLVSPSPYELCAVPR
Lysine-specific demethylase 4C, sequence (Q9H3R0 whole entry): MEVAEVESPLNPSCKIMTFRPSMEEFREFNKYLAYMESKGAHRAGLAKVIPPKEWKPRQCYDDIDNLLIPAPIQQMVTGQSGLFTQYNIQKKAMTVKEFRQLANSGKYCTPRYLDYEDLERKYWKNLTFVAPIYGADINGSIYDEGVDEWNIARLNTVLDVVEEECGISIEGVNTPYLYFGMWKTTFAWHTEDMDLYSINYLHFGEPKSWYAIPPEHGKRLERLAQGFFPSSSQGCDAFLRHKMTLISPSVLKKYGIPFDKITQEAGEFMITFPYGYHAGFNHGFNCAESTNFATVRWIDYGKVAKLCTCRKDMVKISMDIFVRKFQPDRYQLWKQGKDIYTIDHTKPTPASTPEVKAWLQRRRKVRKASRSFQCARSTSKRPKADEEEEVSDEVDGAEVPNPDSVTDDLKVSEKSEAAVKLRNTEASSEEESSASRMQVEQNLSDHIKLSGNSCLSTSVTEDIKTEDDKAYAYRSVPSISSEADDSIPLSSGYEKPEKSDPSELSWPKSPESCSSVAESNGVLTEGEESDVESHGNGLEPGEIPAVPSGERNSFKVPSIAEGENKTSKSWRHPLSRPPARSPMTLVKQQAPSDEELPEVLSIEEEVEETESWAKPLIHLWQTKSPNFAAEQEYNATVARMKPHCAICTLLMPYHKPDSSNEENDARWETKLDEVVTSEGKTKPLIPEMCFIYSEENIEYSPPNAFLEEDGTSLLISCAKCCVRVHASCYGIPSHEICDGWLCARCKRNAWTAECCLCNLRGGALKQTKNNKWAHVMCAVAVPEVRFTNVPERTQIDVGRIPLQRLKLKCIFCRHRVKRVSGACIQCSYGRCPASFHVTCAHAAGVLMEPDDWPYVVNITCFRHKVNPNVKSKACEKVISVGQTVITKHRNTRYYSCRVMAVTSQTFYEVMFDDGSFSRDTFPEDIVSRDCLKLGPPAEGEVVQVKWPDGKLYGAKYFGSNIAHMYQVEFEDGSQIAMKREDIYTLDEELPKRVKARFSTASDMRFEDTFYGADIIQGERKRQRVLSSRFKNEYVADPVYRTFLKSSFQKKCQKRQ
Cytochrome P450 2C19, sequence (P33261 whole entry): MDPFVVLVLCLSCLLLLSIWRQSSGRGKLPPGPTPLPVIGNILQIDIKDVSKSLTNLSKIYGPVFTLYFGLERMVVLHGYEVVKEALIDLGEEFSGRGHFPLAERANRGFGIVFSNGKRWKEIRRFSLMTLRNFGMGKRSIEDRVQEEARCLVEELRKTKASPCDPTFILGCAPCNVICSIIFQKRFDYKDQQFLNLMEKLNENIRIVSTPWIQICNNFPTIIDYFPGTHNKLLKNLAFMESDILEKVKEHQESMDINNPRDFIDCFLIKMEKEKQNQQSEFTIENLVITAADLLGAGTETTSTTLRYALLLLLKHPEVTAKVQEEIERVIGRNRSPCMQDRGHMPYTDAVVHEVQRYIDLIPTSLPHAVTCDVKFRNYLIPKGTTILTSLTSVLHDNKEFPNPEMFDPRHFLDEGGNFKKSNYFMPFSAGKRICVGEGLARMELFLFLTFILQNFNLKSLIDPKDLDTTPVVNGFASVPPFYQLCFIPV
Lysine-specific demethylase 4A, sequence (O75164 whole entry): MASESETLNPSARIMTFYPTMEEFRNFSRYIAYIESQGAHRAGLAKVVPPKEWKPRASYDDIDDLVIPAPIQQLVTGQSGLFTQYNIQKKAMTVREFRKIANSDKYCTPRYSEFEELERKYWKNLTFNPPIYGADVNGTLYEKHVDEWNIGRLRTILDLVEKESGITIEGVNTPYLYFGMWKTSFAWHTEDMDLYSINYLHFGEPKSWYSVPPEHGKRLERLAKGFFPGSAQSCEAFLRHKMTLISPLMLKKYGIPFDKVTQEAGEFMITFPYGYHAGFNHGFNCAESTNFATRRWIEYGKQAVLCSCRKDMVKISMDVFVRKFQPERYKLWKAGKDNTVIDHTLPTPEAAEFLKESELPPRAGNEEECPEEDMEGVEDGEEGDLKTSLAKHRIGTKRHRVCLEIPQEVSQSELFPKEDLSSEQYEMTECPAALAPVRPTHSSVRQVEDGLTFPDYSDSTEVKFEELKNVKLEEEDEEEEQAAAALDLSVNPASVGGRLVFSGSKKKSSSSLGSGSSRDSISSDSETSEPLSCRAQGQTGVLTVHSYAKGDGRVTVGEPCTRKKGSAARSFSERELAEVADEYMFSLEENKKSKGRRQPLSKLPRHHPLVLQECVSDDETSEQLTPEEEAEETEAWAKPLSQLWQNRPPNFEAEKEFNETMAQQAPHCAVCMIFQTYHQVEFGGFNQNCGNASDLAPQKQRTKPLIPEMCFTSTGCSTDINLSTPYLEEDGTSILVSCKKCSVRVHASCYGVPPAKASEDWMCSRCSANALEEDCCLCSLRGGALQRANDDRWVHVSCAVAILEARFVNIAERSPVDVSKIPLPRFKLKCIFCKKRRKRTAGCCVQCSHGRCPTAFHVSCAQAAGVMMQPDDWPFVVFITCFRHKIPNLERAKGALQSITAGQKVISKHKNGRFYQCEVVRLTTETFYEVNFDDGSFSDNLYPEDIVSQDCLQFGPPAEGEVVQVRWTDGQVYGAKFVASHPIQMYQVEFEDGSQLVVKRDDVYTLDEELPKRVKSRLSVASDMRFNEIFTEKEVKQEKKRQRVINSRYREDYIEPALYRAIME

AC50 [1]: inconclusive | AC50 [2]: inconclusive
Structure (SMILES): CC1=N/C(=C\c2ccc([N+](=O)[O-])cc2)C(=O)N1c1ccc(Cl)cc1

AC50 [3]: 45.3 µM (active) | AC50 [4]: 4.26 µM (active)
Structure (SMILES): Cn1c(=O)c2nc(O)cnc2n(C)c1=S

AC50 [9]: 32.4 µM (active)
Structure (SMILES): CCN=C(S)NNC(=O)CCn1cc(C)cn1

The next lines start with the molecule.

Structure (SMILES): O=C1C(c2ccncc2)N(CCC2=CCCCC2)C(=O)CN1C1CCCCC1 (centres undefined)
IC50 [5]: > 50 µM (inactive)

Structure (SMILES): COc1ccc(-c2csc(Nc3ccc(S(=O)(=O)Nc4cc(OC)nc(OC)n4)cc3)n2)cc1
CC50 [6]: 15.2 µM (active) | IC50 [7]: 4.76 µM (active)

Structure (SMILES): Cc1cc(C)n(C(=O)c2sc3cc(F)ccc3c2Cl)n1
EC50 [8]: 0.299 µM (active)
